The values below are quoted from earlier work in patent publication US8715648B2, “Method for treating obesity with anti-obesity formulations and omega 3 fatty acids for the reduction of body weight in cardiovascular disease patients (CVD) and diabetics” (Pivotal Therapeutics Inc., priority 2011, dated 2014).

Structures are written as SMILES.

For this series, the target named is CB1R (Homo sapiens, UniProt P21554). The settings on record: in vivo.
Sequence of CB1R (P21554 whole entry): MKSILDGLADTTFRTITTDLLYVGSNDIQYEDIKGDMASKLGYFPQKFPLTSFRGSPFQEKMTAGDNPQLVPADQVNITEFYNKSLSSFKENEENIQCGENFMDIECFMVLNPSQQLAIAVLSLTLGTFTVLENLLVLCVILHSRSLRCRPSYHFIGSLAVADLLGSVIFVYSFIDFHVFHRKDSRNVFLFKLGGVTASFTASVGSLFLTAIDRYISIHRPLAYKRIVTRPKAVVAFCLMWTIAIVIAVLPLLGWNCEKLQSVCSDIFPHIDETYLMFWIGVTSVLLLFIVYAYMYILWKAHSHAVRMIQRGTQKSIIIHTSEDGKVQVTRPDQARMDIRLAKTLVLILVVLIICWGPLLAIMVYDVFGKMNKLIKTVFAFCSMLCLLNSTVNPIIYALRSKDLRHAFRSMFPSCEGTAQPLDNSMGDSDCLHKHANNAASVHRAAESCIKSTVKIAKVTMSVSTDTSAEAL

Take `CCNC1(C(N)=O)CCN(c2ncnc3c2nc(-c2ccccc2Cl)n3-c2ccc(Cl)cc2)CC1.Cl` [CP-945,598]: the “Reason for failure of phase III clinical trials” value is “psychiatric adverse reactions, including severe depression and anxiety”.
